This is an account of results in patent US20090221622A1, “TOPOTECAN READY TO USE SOLUTIONS” (EAGLE PHARMACEUTICALS, INC., priority 2008, published 2009).

Read-outs that look alike come from different tables or passages of the source.

The conditions of series [1]: aqueous media; cited from earlier work.
The nature of series [2]: Solubility of 10-HCPT in aqueous and acid media.
The procedure of series [3]: […] […] Quantitatively, 0.01 area % is equivalent to 0.1 μg/mL of 10-HPCT.
The solution was filled into either flint glass vials or polyethylene vials. One portion of the solution was transferred into 5 ml glass vials and another portion was placed into 5 ml PE vials.

For series [4] the following is noted: in vivo; cited from earlier work.

Consider `CC[C@@]1(O)C(=O)OCc2c1cc1n(c2=O)Cc2cc3cc(O)ccc3nc2-1` [Example 10-HCPT, 10-hydroxycamptothecin], for which the “Solubility of 10-HCPT” value in series [1] is on record as “about 2 ng/ml”; in series [2] (0.01N HCl containing 3% benzyl alcohol), “about 10 μg/mL”; in series [2] (0.1 N HCl), 6 μg/mL; in series [2] (0.1 N MSA), “about 6 μg/mL”; in series [2] (starting value, without benzyl alcohol), “about 2 ng/mL”. In addition, the “Increase of solubility of 10-HCPT” value in series [2] (0.01N HCl containing 3% benzyl alcohol versus about 2 ng/mL) is approximately 5000 fold. Moreover, the “Saturation solubility of 10 HCPT” value in series [2] (10% lactic acid) was determined as 6.4 µg/mL. Further, the “Solubility of 10 HCPT” value in series [2] (20% lactic acid solution) was determined as 15 µg/mL. In series [2] (formulations prepared in hydrochloric acid, pH 1.5 or less), the “Concentration of 10-HCPT reached before it precipitates” value is recorded as “about 4 μg/mL”.
Regarding `CC[C@@]1(O)C(=O)OCc2c1cc1n(c2=O)Cc2cc3c(CN(C)C)c(O)ccc3nc2-1` [Topotecan], the “10-HCPT formed by degradation” value in series [3] (5 weeks, 1 mg/ml, pH 3.2) stood at 5.64%; in series [3] (12 weeks, 1 mg/mL, pH 1), 0.07%; in series [3] (12 weeks, 1 mg/ml, pH 2), 0.6%. Also, the Dose limiting toxicity entry in series [4] was “neutropenia (bone marrow suppression) and thrombocytopenia”.
